Data published in patent US20200323772A1, “TREATMENT OF INFLAMMATORY DISEASE USING INGESTIBLE DEVICE TO RELEASE IMMUNE MODULATOR” (Progenity, Inc., priority 2017, published 2020).

Tests used:
[1] = Tissue, plasma, rectal and GI content pharmacokinetics of tacrolimus, oral vs intra-cecal ingestible device (Example 10); parameters: species or system Yorkshire-Cross farm swine; conditions: in vivo
Procedure: The primary objective of this study was to compare the tissue, plasma, rectal sample, and GI content pharmacokinetics of tacrolimus through oral versus intra-cecal ingestible device delivery in normal Yorkshire-Cross farm swine.
(§1) No further randomization procedure was employed.
Animals in Group 1 received an ingestible device containing 0.8 mL of vehicle solution (80% alcohol, 20% HCO-60). Animals in Group 2 received orally […] liquid formulation of tacrolimus at 4 mg/0.8 mL per animal (Prograf: 5 mg/mL). Animals in Group 3 received intra-cecally an ingestible device containing tacrolimus at 1 mg in 0.8 mL per ingestible device. Animals in Group 4 received intra-cecally an ingestible device containing tacrolimus at 2 mg in 0.8 mL per ingestible device. Animals in Group 5 received intra-cecally an ingestible device containing tacrolimus at 4 mg in 0.8 mL per ingestible device. To control for potential confounding effects of the surgery, all groups fast on Day −11 at least 24 hr before being subjected to anesthesia followed by surgical placements of a cecal port by a veterinary surgeon at Day −10. All animals were fasted for at least 12 hr prior to dosing on Day 1. Animals were dosed via either intra-cecal dosing (IC) or oral dosing (PO) at Day 1 (between 6-8 p.m.). All animals resumed feeding at approximately 4 hours after dose ([…]. after dosing).
Animals in Group 1 (Vehicle Control) were administered a single intra-cecal ingestible device containing 0.8 mL Vehicle solution (80% alcohol, 20% castor oil (HCO-60) on Day 1. On Day −10 the animals were anesthetized, and a veterinary surgeon surgically placed an intra-cecal port in each animal. On Day 1, each animal was placed into a sling then a single intra-cecal ingestible device containing 0.8 mL vehicle solution (80% alcohol, 20% castor oil (HCO-60)) is introduced by the veterinary surgeon into the cecum via the cecal port in each animal. Following ingestible device placement, the animals were removed from the slings and placed back into their pens with water. All animals resumed feeding at approximately 4 hours after dose. […] A total of 60 samples were collected.
Approximately 200˜400 mg of rectal content were collected, if available, with a fecal swab (Copan Diagnostics Nylon Flocked Dry Swabs, 502CS01). The fecal swab was pre-weighed and weighed after collection in the collection tube (Sterile Tube and Cap No Media, PFPM913S), and the sample weight was recorded. The fecal swab was broken via the breakpoint, and was stored in the collection tube, and immediately frozen at −70° C. […] Immediately following euthanasia, tissue was collected.
For tissue necropsy, small intestine fluid and cecal fluid were collected separately from all the animals into two separate square plastic bottles, and stored at −20° C. The length and diameter of the cecum and the colon was measured from one animal in each group and recorded for reference. Tissues were collected for pharmacokinetic analyses and include mesenteric lymph nodes, a Peyer's Patch, and five gastrointestinal sections, including cecum, proximal colon, transverse colon, distal colon, and rectum. All samples were weighed, and the tissue sample weights were recorded. […] Around 3 grams of the total punched sample were collected into a pre-weighed 15-mL conical tube, and the tissue weight was recorded. […]

[2] = Pharmacokinetic study of oral vs intra-cecal tacrolimus: blood, GI tissue, luminal and rectal content concentrations (Example 13); parameters: species or system Yorkshire-Cross farm swine; conditions: in vivo, 0.09 mg/kg
Source text: as §1

[3] = female, Yorkshire-Cross, pig, po
[4] = female, Yorkshire-Cross, pig, po, 12 h

luminal content (spiral, transverse, and distal colon) concentrations [1]: Significantly higher
mean concentration in the cecum tissue and the proximate colon tissue [1]: higher
tissue (spiral and transverse colon) concentrations [1]: Significantly higher
level in tissue ([1]; po): No measurable level
Kp at 12 h [2, 3]: 0
Tissue (mean) (ng/g)/AUG(0-12 hr)(ng·hr/ml) Ratio [2, 4]: 0
Tissue (mean) (ng/g)/Trough(12 hr)(ng/ml) Ratio [2, 4]: 0
Trough (12 hr) [2, 4]: 0.568 ng/mL
concentration at 12 h ([2]; female, Yorkshire-Cross, pig, po, Trough (12 hr)): 0.568 ng/mL
AUC0-12 hours in the blood [2]: higher
mean concentration in the blood [2]: higher
SMILES: C=CC[C@@H]1/C=C(\C)C[C@H](C)C[C@H](OC)[C@H]2O[C@@](O)(C(=O)C(=O)N3CCCC[C@H]3C(=O)O[C@H](/C(C)=C/[C@@H]3CC[C@@H](O)[C@H](OC)C3)[C@H](C)[C@@H](O)CC1=O)[C@H](C)C[C@@H]2OC [tacrolimus]
systemic concentrations [1, 3]: equivalent to low dose IC group (0.02 mg/kg)
